Experimental data published in patent US8673911B2, “Inhibitors of histone deacetylase” (MethylGene Inc., priority 2007, dated 2014).

molecular target: one or more of HDAC4, HDAC5, HDAC6, HDAC7, HDAC8, HDAC9 and HDAC11; assay: Inhibition of histone deacetylase enzymatic activity (fluorogenic Boc-Lys(Ac)-AMC / Boc-Lys(trifluoroacetyl)-AMC substrate); assay type: biochemical; details: against one or more of HDAC4, HDAC5, HDAC6, HDAC7, HDAC8, HDAC9 and HDAC11
Method: Inhibition of HDAC-1,2,3,6 and 8
The following protocol is used to assay the compounds of the invention. In the assay, the buffer used is 25 mM HEPES, pH 8.0, 137 mM NaCl, 2.7 mM KCl, 1 mM MgCl2 and the substrate is Boc-Lys(Ac)-AMC in a 50 mM stock solution in DMSO. The enzyme stock solution is 4.08 μg/mL in buffer.
The compounds are pre-incubated (2 μl, in DMSO diluted to […] in buffer for transfer to assay plate) with enzyme (20 μL of 4.08 μg/mL) for 10 minutes at room temperature (35 μL pre-incubation volume). The mixture is pre-incubated for 5 minutes at room temperature. The reaction is started by bringing the temperature to 37° C. and adding 15 μL substrate. Total reaction volume is 50 μL. The reaction is stopped after 20 minutes by addition of 50 μL developer, prepared as directed by Biomol (FLUOR DE LYS™ developer, Cat. # KI-105). A plate is incubated in the dark for 10 minutes at room temperature before reading (λEx=360 nm, λEm=470 nm, Cutoff filter at 435 nm).
Inhibition of Class II HDAC and HDAC-11
A 30 mM stock of Boc-Lys(trifluoroacetyl)-AMC substrate is prepared in DMSO. 2 μL test compound in DMSO is diluted to 50 μL in buffer (25 mM HEPES, pH 8.0, 137 mM NaCl, 2.7 mM KCl, 1 mM MgCl2, 0.1% BSA) and pre-incubated with HDAC enzyme (30 μL of a final enzyme concentration of 0.1-0.2 nM) for 10 minutes at room temperature. Reaction is started by adding 18 μL Boc-Lys(trifluoroacetyl)-AMC substrate and incubating at 37° C. for 20-30 minutes. The reaction is stopped by adding 50 μL trypsin (1 mg/mL) and a known HDAC inhibitor. The plate is then incubated in the dark for 20 minutes at room temperature and read with Ex=360 nm, Em=470 nm, cutoff filter at 435 nm.

Compound | IC50 [nM]
O=C(NO)c1sc(C2CCN(C(=O)c3ccccc3)CC2)nc1-c1ccccc1 [Compound 133, 2-(1-benzoylpiperidin-4-yl)-N-hydroxy-4-phenylthiazole-5-carboxamide] | < 250
O=C(NO)c1cn(-c2ccccc2)nc1-c1ccc(F)cc1 [Compound 108, 3-(4-fluorophenyl)-N-hydroxy-1-phenyl-1H-pyrazole-4-carboxamide] | 750 to 5000
O=C(NO)c1sc2ccc(NS(=O)(=O)c3cccs3)cc2c1-c1ccccc1 [Compound 160] | 250 to 500
O=C(NCc1ccccc1)OCc1cc(-c2ccccc2)c(C(=O)NO)s1 [Compound 180, (5-(hydroxycarbamoyl)-4-phenylthiophen-2-yl)methyl benzylcarbamate] | < 250
O=C(NO)c1ccccc1-c1cccc(-c2ccccc2)c1 [Compound 13] | 750 to 5000
O=C(NO)c1ccc(-c2ccccc2)cc1-c1ccccc1 [Compound 52] | < 250
CN(Cc1ccccc1)Cc1cc(-c2ccccc2)c(C(=O)NO)s1 [Compound 182, 5-((benzyl(methyl)amino)methyl)-N-hydroxy-3-phenylthiophene-2-carboxamide] | < 250
O=C(NO)c1sc(-c2cccs2)nc1-c1ccccc1 [Compound 140, N-hydroxy-4-phenyl-2-(thiophen-2-yl)thiazole-5-carboxamide] | 500 to 750
O=C(NO)c1cnc(-c2ccccc2)nc1-c1cccc(F)c1 [Compound 143, 4-(3-fluorophenyl)-N-hydroxy-2-phenylpyrimidine-5-carboxamide] | 250 to 500
O=C(NO)c1sc(-c2ccc3c(c2)CCO3)nc1-c1ccccc1 [Compound 139, 2-(2,3-dihydrobenzofuran-5-yl)-N-hydroxy-4-phenylthiazole-5-carboxamide] | 750 to 5000
O=C(NO)c1sc(C2CCN(CCc3c[nH]c4ccccc34)CC2)nc1-c1ccccc1 [Compound 152, 2-(1-(2-(1H-indol-3-yl)ethyl)piperidin-4-yl)-N-hydroxy-4-phenylthiazole-5-carboxamide] | < 250
O=C(NO)c1sc(N2CCCc3ccccc32)nc1-c1ccccc1 [Compound 121, 2-(3,4-dihydroquinolin-1(2H)-yl)-N-hydroxy-4-phenylthiazole-5-carboxamide] | < 250
O=C(Nc1ccc2sc(C(=O)NO)c(-c3ccccc3)c2c1)OCc1ccccc1 [Compound 131, benzyl 2-(hydroxycarbamoyl)-3-phenylbenzo[b] thiophen-5-ylcarbamate] | 500 to 750
O=C(NO)c1sc(C2CCN(Cc3ccncc3)CC2)nc1-c1ccccc1 [Compound 144, N-hydroxy-4-phenyl-2-(1-(pyridin-4-ylmethyl)piperidin-4-yl)thiazole-5-carboxamide] | < 250
O=C(NO)c1sc2ccc(NS(=O)(=O)c3ccccc3)cc2c1-c1ccccc1 [Compound 126, N-hydroxy-3-phenyl-5-(phenylsulfonamido) benzo[b] thiophene-2-carboxamide] | 500 to 750
O=C(NO)c1sc(-c2ccccn2)nc1-c1ccccc1 [Compound 153, N-hydroxy-4-phenyl-2-(pyridin-2-yl)thiazole-5-carboxamide] | 250 to 500
O=C(NO)c1sc(Cc2ccccc2)cc1-c1ccccc1 [Compound 130, 5-benzyl-N-hydroxy-3-phenylthiophene-2-carboxamide] | < 250
O=C(NO)c1cn(Cc2ccccc2)nc1-c1ccccc1 [Compound 106, 1-benzyl-N-hydroxy-3-phenyl 1H-pyrazole-4-carboxamide] | 250 to 500
O=C(NO)c1cn(-c2ccccc2)nc1-c1ccccc1 [Compound 32, N-hydroxy-1,3-diphenyl-1H-pyrazole-4-carboxamidc] | 500 to 750

Compound | IC50 [nM]
CC(=O)Nc1ccc(S(=O)(=O)N2CCC(c3nc(-c4ccccc4)c(C(=O)NO)s3)CC2)cc1 [Compound 158, 2-(1-(4-acetamidophenyl-sulfonyl)piperidin-4-yl)-N-hydroxy-4-phenylthiazole-5-carboxamide] | < 250
O=C(NO)c1cnc(-c2ccccc2)nc1-c1ccccc1 [Compound 141, N-hydroxy-2,4-diphenylpyrimidine-5-carboxamide] | 250 to 500
O=C(NO)c1sc(C2CCN(Cc3ccccc3)CC2)nc1-c1ccccc1 [Compound 132, 2-(1-benzylpiperidin-4-yl)-N-hydroxy-4-phenylthiazole-5-carboxamide] | < 250
O=C(NO)c1sc(COc2ccccc2)cc1-c1ccccc1 [Compound 125, N-hydroxy-5-(phenoxymethyl)-3-phenylthiophene-2-carboxamide] | < 250
Cc1cscc1-c1ccccc1C(=O)NO [Compound 24, N-hydroxy-2-(4-mcthylthiophen-3-yl)benzamide] | 750 to 5000
CN(C)c1ccc(-c2ccc(C(=O)NO)c(-c3ccccc3)c2)cc1 [Compound 116, 5-(4-dimethylamino-phenyl)-N-hydroxybiphenyl-2-carboxamide] | < 250
O=C(NO)c1sc(-c2cccnc2)nc1-c1ccccc1 [Compound 120, N-hydroxy-4-phenyl-2-(pyridin-3-yl)thiazole-5-carboxamide] | < 250
O=C(NO)c1sc(-c2csc3ccccc23)nc1-c1ccccc1 [Compound 110, 2-(benzo[b]thiophen-3-yl)-N-hydroxy-4-phenylthiazole-5-carboxamide] | < 250
O=C(NO)c1sc(N2CCCCC2)nc1-c1ccccc1 [Compound 117, N-hydroxy-4-phenyl-2-(piperidin-1-yl)thiazole-5-carboxamide] | < 250
O=C(NO)c1ccc(CN2C(=O)c3ccccc3Oc3ccccc32)cc1-c1ccccc1 [Compound 162, N-hydroxy-5-((11-oxodibenzo[b,f] [1,4]oxazepin-10(11H)-yl)methyl)biphenyl-2-carboxamide] | < 250
O=C(NO)c1sc(C(c2ccccc2)c2ccccc2)nc1-c1ccccc1 [Compound 150, 2-benzhydryl-N-hydroxy-4-phenylthiazole-5-carboxamide] | < 250
O=C(NO)c1sc2ccc(NS(=O)(=O)Cc3ccccc3)cc2c1-c1ccccc1 [Compound 157, N-hydroxy-3-phenyl-5-(phenylmethyl-sulfonamido) benzo[b]thiophene-2-carboxamide] | < 250
CN(Cc1ccccc1)C(=O)OCc1cc(-c2ccccc2)c(C(=O)NO)s1 [Compound 181, (5-(hydroxycarbamoyl)-4-phenylthiophen-2-yl)methyl benzyl(methyl)carbamate] | < 250
O=C(Nc1ccccc1Oc1ccccc1)c1ccc(C(=O)NO)c(-c2ccccc2)c1 [compound 105] | 500 to 750
O=C(NO)c1sc(-c2ccc3c(c2)OCO3)nc1-c1ccccc1 [compound 81] | < 250
O=C(NO)c1sc(-c2ccc(N3CCOCC3)cc2)nc1-c1ccccc1 [Compound 109, N-hydroxy-2-(4-morpholino-phenyl)-4-phenylthiazole-5-carboxamide] | < 250
O=C(NO)c1sc(-c2ccc(OCCN3CCOCC3)cc2)nc1-c1ccccc1 [Compound 146, N-hydroxy-2-(4-(2-morpholinoethoxy)phenyl)-4-phenylthiazole-5-carboxamide] | < 250
Cc1cscc1-c1ccc(C(=O)NO)c(-c2cscc2C)c1 [Compound 51, N-hydroxy-2,4-bis(4-methylthiophen-3-yl)benzamide] | < 250
